# Test results reported in PMC5218480 (PLoS ONE, 2017).
# Tested on: MV-4-11 cells
# Assay: Gene expression microarray analysis (Affymetrix PrimeView) and GSEA
# Assay type: cell-based, human
# Parameters: RFU PODN (11730768_x_at) / Fold change /veh PODN (11730768_x_at) / RFU LINC00158 (11744669_a_at) / Fold change /veh LINC00158 (11744669_a_at) / RFU DUSP10 (11751237_a_at) / Fold change /veh DUSP10 (11751237_a_at) / RFU ID3 (11757404_x_at) / Fold change /veh ID3 (11757404_x_at) / RFU PLEKHG5 (11737974_s_at) / Fold change /veh PLEKHG5 (11737974_s_at) / RFU LRRC4B (11730491_at) / Fold change /veh LRRC4B (11730491_at) / RFU GIMAP4 (11747438_a_at) / Fold change /veh GIMAP4 (11747438_a_at) / RFU KRT8 (11758183_x_at) / Fold change /veh KRT8 (11758183_x_at) / RFU CNN1 (11734310_a_at) / Fold change /veh CNN1 (11734310_a_at) / RFU VPS37D (11726825_at) / Fold change /veh VPS37D (11726825_at) / RFU C10orf10 (11716522_x_at) / Fold change /veh C10orf10 (11716522_x_at) / RFU KIR2DL2 /// KIR2DL4 /// KIR2DL5A /// KIR2DL5B /// KIR2DS1 /// KIR2DS2 /// KIR2DS3 /// KIR2DS4 /// KIR3DL3 /// KIR3DL3 /// KIR3DS1 (11738374_at) / Fold change /veh KIR2DL2 /// KIR2DL4 /// KIR2DL5A /// KIR2DL5B /// KIR2DS1 /// KIR2DS2 /// KIR2DS3 /// KIR2DS4 /// KIR3DL3 /// KIR3DL3 /// KIR3DS1 (11738374_at) / RFU C1QL1 (11718748_at) / Fold change /veh C1QL1 (11718748_at) / RFU TMPRSS4 (11747572_a_at) / Fold change /veh TMPRSS4 (11747572_a_at) / RFU HAMP (11756126_x_at) / Fold change /veh HAMP (11756126_x_at) / RFU RNFT2 (11725882_a_at) / Fold change /veh RNFT2 (11725882_a_at) / RFU NR4A2 (11747474_a_at) / Fold change /veh NR4A2 (11747474_a_at) / RFU ABCC12 (11746883_a_at) / Fold change /veh ABCC12 (11746883_a_at) / RFU TMEM136 (11760407_x_at) / Fold change /veh TMEM136 (11760407_x_at) / RFU CLDN22 /// WWC2 (11732394_at) / Fold change /veh CLDN22 /// WWC2 (11732394_at) / RFU HLA-DPB1 (11760878_x_at) / Fold change /veh HLA-DPB1 (11760878_x_at) / RFU SPINT1 (11716480_a_at) / Fold change /veh SPINT1 (11716480_a_at) / RFU GAP43 (11754022_s_at) / Fold change /veh GAP43 (11754022_s_at) / RFU A4GNT (11735810_at) / Fold change /veh A4GNT (11735810_at) / RFU PRB3 (11715151_x_at) / Fold change /veh PRB3 (11715151_x_at) / RFU TUBB4B (11761932_at) / Fold change /veh TUBB4B (11761932_at) / RFU CAPN14 (11732068_a_at) / Fold change /veh CAPN14 (11732068_a_at) / RFU TMCC2 (11721928_a_at) / Fold change /veh TMCC2 (11721928_a_at) / RFU IRGQ (11745062_a_at) / Fold change /veh IRGQ (11745062_a_at) / RFU FAM174B (11720279_a_at) / Fold change /veh FAM174B (11720279_a_at) / RFU TMPRSS4 (11748680_a_at) / Fold change /veh TMPRSS4 (11748680_a_at) / RFU FAM212B (11763350_a_at) / Fold change /veh FAM212B (11763350_a_at) / RFU PLEKHG5 (11743358_a_at) / Fold change /veh PLEKHG5 (11743358_a_at) / RFU ZSCAN30 (11745921_a_at) / Fold change /veh ZSCAN30 (11745921_a_at) / RFU CMKLR1 (11741424_a_at) / Fold change /veh CMKLR1 (11741424_a_at) / RFU LOC101060620 /// MAPK8IP1 (11723275_at) / Fold change /veh LOC101060620 /// MAPK8IP1 (11723275_at) / RFU SPTSSB (11747773_x_at) / Fold change /veh SPTSSB (11747773_x_at) / RFU PRSS12 (11739890_at) / Fold change /veh PRSS12 (11739890_at) / RFU BIN1 (11741810_x_at) / Fold change /veh BIN1 (11741810_x_at) / RFU WNT11 (11732464_a_at) / Fold change /veh WNT11 (11732464_a_at) / RFU C10orf10 (11716521_a_at) / Fold change /veh C10orf10 (11716521_a_at) / RFU C5orf56 (11738089_at) / Fold change /veh C5orf56 (11738089_at) / RFU CYB561 (11721691_x_at) / Fold change /veh CYB561 (11721691_x_at) / RFU ANKRD19P (11752326_a_at) / Fold change /veh ANKRD19P (11752326_a_at) / RFU OR2T12 /// OR2T33 /// OR2T8 (11738714_s_at) / Fold change /veh OR2T12 /// OR2T33 /// OR2T8 (11738714_s_at) / RFU VCAN (11748164_a_at) / Fold change /veh VCAN (11748164_a_at) / RFU JSRP1 (11732532_at) / Fold change /veh JSRP1 (11732532_at) / RFU KRTAP10-11 (11738290_x_at) / Fold change /veh KRTAP10-11 (11738290_x_at) / RFU MYO3A (11730013_a_at) / Fold change /veh MYO3A (11730013_a_at) / RFU EBF3 (11725865_a_at) / Fold change /veh EBF3 (11725865_a_at) / RFU CAMK2N1 (11719241_x_at) / Fold change /veh CAMK2N1 (11719241_x_at) / RFU C5orf56 (11738088_a_at) / Fold change /veh C5orf56 (11738088_a_at) / RFU OLFML3 (11715873_a_at) / Fold change /veh OLFML3 (11715873_a_at) / RFU LOC100653217 /// NTM (11731650_a_at) / Fold change /veh LOC100653217 /// NTM (11731650_a_at) / RFU MAPK11 (11762145_a_at) / Fold change /veh MAPK11 (11762145_a_at) / RFU FIZ1 (11724087_x_at) / Fold change /veh FIZ1 (11724087_x_at) / RFU OASL (11726364_x_at) / Fold change /veh OASL (11726364_x_at) / RFU SOX15 (11748057_x_at) / Fold change /veh SOX15 (11748057_x_at) / RFU CD79A (11719716_a_at) / Fold change /veh CD79A (11719716_a_at) / RFU HIST1H1D (11736915_at) / Fold change /veh HIST1H1D (11736915_at) / RFU CASKIN2 (11723855_a_at) / Fold change /veh CASKIN2 (11723855_a_at) / RFU LOC730098 (11760151_x_at) / Fold change /veh LOC730098 (11760151_x_at) / RFU OR4N2 (11742367_at) / Fold change /veh OR4N2 (11742367_at) / RFU PRRT2 (11749266_a_at) / Fold change /veh PRRT2 (11749266_a_at) / RFU SNX32 (11753110_a_at) / Fold change /veh SNX32 (11753110_a_at) / RFU CDHR5 (11726645_a_at) / Fold change /veh CDHR5 (11726645_a_at) / RFU RCAN1 (11760418_a_at) / Fold change /veh RCAN1 (11760418_a_at) / RFU FAM167A (11723789_a_at) / Fold change /veh FAM167A (11723789_a_at) / RFU FAM26E (11764081_at) / Fold change /veh FAM26E (11764081_at) / RFU ISYNA1 (11749810_s_at) / Fold change /veh ISYNA1 (11749810_s_at) / RFU ACY1 (11761880_at) / Fold change /veh ACY1 (11761880_at) / RFU 11764098_at / Fold change /veh 11764098_at / RFU SAMD14 (11745864_x_at) / Fold change /veh SAMD14 (11745864_x_at) / RFU NPB (11741838_a_at) / Fold change /veh NPB (11741838_a_at) / RFU TMPRSS6 (11731388_a_at) / Fold change /veh TMPRSS6 (11731388_a_at) / RFU KRTAP10-2 (11738614_at) / Fold change /veh KRTAP10-2 (11738614_at) / RFU ARHGAP8 /// PRR5-ARHGAP8 (11727945_x_at) / Fold change /veh ARHGAP8 /// PRR5-ARHGAP8 (11727945_x_at) / RFU KRTAP5-7 /// NADSYN1 (11734609_at) / Fold change /veh KRTAP5-7 /// NADSYN1 (11734609_at) / RFU RASL12 (11751679_a_at) / Fold change /veh RASL12 (11751679_a_at) / RFU CDKN2B (11736163_a_at) / Fold change /veh CDKN2B (11736163_a_at) / RFU PRF1 (11729649_at) / Fold change /veh PRF1 (11729649_at) / RFU, ZNF638 /// ZNF638-IT1 / Fold change vs veh, ZNF638 /// ZNF638-IT1 / RFU, PANK3 / Fold change vs veh, PANK3 / RFU, SH3YL1 / Fold change vs veh, SH3YL1 / RFU, ZEB2 / Fold change vs veh, ZEB2 / RFU, NRIP1 / Fold change vs veh, NRIP1 / RFU, PTTG1IP / Fold change vs veh, PTTG1IP / RFU, CAPN2 / Fold change vs veh, CAPN2 / RFU, MED14 / Fold change vs veh, MED14 / RFU, SNORA58 / Fold change vs veh, SNORA58 / RFU, C1orf63 / Fold change vs veh, C1orf63 / RFU, LRRFIP1 / Fold change vs veh, LRRFIP1 / RFU, NDUFAF7 / Fold change vs veh, NDUFAF7 / RFU, SLC12A2 / Fold change vs veh, SLC12A2 / RFU, IBTK / Fold change vs veh, IBTK / RFU, ESF1 / Fold change vs veh, ESF1 / Fold change vs veh, TMEM50B / RFU, TAOK1 / Fold change vs veh, TAOK1 / RFU, ACBD3 / Fold change vs veh, ACBD3 / RFU, TMA16 / Fold change vs veh, TMA16 / RFU, RWDD3 / Fold change vs veh, RWDD3 / RFU, BCAT1 / Fold change vs veh, BCAT1 / RFU, EDEM3 / Fold change vs veh, EDEM3 / RFU, TMEM33 / Fold change vs veh, TMEM33 / RFU, WDR75 / Fold change vs veh, WDR75 / RFU, AHCTF1 / Fold change vs veh, AHCTF1 / RFU, TFRC / Fold change vs veh, TFRC / RFU, ZDHHC17 / Fold change vs veh, ZDHHC17 / RFU, NOM1 / Fold change vs veh, NOM1 / RFU, ARL8B / Fold change vs veh, ARL8B / RFU, ZBTB11 / Fold change vs veh, ZBTB11 / RFU, TAMM41 / Fold change vs veh, TAMM41 / RFU, KIAA1704 /// LOC100996395 / Fold change vs veh, KIAA1704 /// LOC100996395 / RFU, ING1 / Fold change vs veh, ING1 / RFU, TRMT61B / Fold change vs veh, TRMT61B / RFU, FUBP3 / Fold change vs veh, FUBP3 / RFU, TP53 / Fold change vs veh, TP53 / RFU, TNKS2 / Fold change vs veh, TNKS2 / RFU, ZFP14 / Fold change vs veh, ZFP14 / RFU, ACTR2 / Fold change vs veh, ACTR2 / RFU, PPP3R1 / Fold change vs veh, PPP3R1 / RFU, PIK3R1 / Fold change vs veh, PIK3R1 / RFU, HNRNPA1 / Fold change vs veh, HNRNPA1 / RFU, RNF170 / Fold change vs veh, RNF170 / RFU, ZNF28 / Fold change vs veh, ZNF28 / RFU, RNGTT / Fold change vs veh, RNGTT / RFU, OGT / Fold change vs veh, OGT / RFU, BRD1 / Fold change vs veh, BRD1 / RFU, MARS / Fold change vs veh, MARS / RFU, ZNF655 / Fold change vs veh, ZNF655 / RFU, FAHD1 / Fold change vs veh, FAHD1 / RFU, BDP1 / Fold change vs veh, BDP1 / RFU, LRRCC1 / Fold change vs veh, LRRCC1 / RFU, ARID1A / Fold change vs veh, ARID1A / RFU, ZNF146 / Fold change vs veh, ZNF146 / RFU, ZNF330 / Fold change vs veh, ZNF330 / RFU, GPN3 / Fold change vs veh, GPN3 / RFU, C9orf123 / Fold change vs veh, C9orf123 / RFU, N4BP2L2 / Fold change vs veh, N4BP2L2 / RFU, ARFIP1 / Fold change vs veh, ARFIP1 / RFU, FAM179B / Fold change vs veh, FAM179B / RFU, BCL10 / Fold change vs veh, BCL10 / RFU, UHRF1BP1L / Fold change vs veh, UHRF1BP1L / RFU, BET1 / Fold change vs veh, BET1 / RFU, CNOT2 / Fold change vs veh, CNOT2 / RFU, ZNF268 / Fold change vs veh, ZNF268 / Fold change vs veh, ZNF507 / RFU, DGCR2 / Fold change vs veh, DGCR2 / RFU, WDSUB1 / Fold change vs veh, WDSUB1 / Fold change vs veh, HSP90B1 /// MIR3652 / RFU, ADSS / Fold change vs veh, ADSS / RFU, GK / Fold change vs veh, GK / RFU, ZNF148 / Fold change vs veh, ZNF148 / RFU, TAF9 / Fold change vs veh, TAF9 / RFU, SLC1A5 / Fold change vs veh, SLC1A5 / RFU, SLMO2 / Fold change vs veh, SLMO2 / RFU, ABCC4 / Fold change vs veh, ABCC4 / RFU, LOC101060439 /// RAP1B / Fold change vs veh, LOC101060439 /// RAP1B / RFU, RFX7 / Fold change vs veh, RFX7 / RFU, GTPBP10 / Fold change vs veh, GTPBP10 / RFU, CNEP1R1 / Fold change vs veh, CNEP1R1 / RFU, BIVM-ERCC5 /// ERCC5 / Fold change vs veh, BIVM-ERCC5 /// ERCC5 / RFU, ILF3 / Fold change vs veh, ILF3 / RFU 11762660_at / Fold change /veh 11762660_at / RFU VCAN (11757783_s_at) / Fold change /veh VCAN (11757783_s_at) / RFU DDX43 (11728927_at) / Fold change /veh DDX43 (11728927_at) / RFU KRT8 (11758188_x_at) / Fold change /veh KRT8 (11758188_x_at) / RFU NKD1 (11759106_at) / Fold change /veh NKD1 (11759106_at) / RFU SRD5A1 (11742802_a_at) / Fold change /veh SRD5A1 (11742802_a_at) / RFU TPSAB1 /// TPSB2 (11721975_s_at) / Fold change /veh TPSAB1 /// TPSB2 (11721975_s_at) / RFU GSTM3 (11746129_a_at) / Fold change /veh GSTM3 (11746129_a_at) / RFU IL23R (11737362_x_at) / Fold change /veh IL23R (11737362_x_at) / RFU TMEM51 (11727254_a_at) / Fold change /veh TMEM51 (11727254_a_at) / RFU PIWIL2 (11732686_x_at) / Fold change /veh PIWIL2 (11732686_x_at) / RFU ORM1 (11744905_x_at) / Fold change /veh ORM1 (11744905_x_at) / RFU CCDC152 (11743942_at) / Fold change /veh CCDC152 (11743942_at) / RFU ECM1 (11717891_a_at) / Fold change /veh ECM1 (11717891_a_at) / RFU IL23R (11748794_a_at) / Fold change /veh IL23R (11748794_a_at) / RFU TNFAIP8L3 (11732012_x_at) / Fold change /veh TNFAIP8L3 (11732012_x_at) / RFU MBOAT4 (11741988_at) / Fold change /veh MBOAT4 (11741988_at) / RFU 11764193_at / Fold change /veh 11764193_at / RFU TMEM53 (11763286_at) / Fold change /veh TMEM53 (11763286_at) / RFU MAGEB2 (11727129_at) / Fold change /veh MAGEB2 (11727129_at) / RFU TMEM200A (11744735_a_at) / Fold change /veh TMEM200A (11744735_a_at) / RFU CCDC152 (11751479_a_at) / Fold change /veh CCDC152 (11751479_a_at) / RFU FAM211A (11726209_a_at) / Fold change /veh FAM211A (11726209_a_at) / RFU RGS16 (11746705_a_at) / Fold change /veh RGS16 (11746705_a_at) / RFU VCAN (11755009_s_at) / Fold change /veh VCAN (11755009_s_at) / RFU RHOB (11743442_s_at) / Fold change /veh RHOB (11743442_s_at) / RFU RGS16 (11720943_a_at) / Fold change /veh RGS16 (11720943_a_at) / RFU RGS16 (11720944_at) / Fold change /veh RGS16 (11720944_at) / RFU, VPS4B / Fold change vs veh, VPS4B / RFU, CREB1 / Fold change vs veh, CREB1 / RFU, DNAJC13 / Fold change vs veh, DNAJC13 / RFU, GNAQ / Fold change vs veh, GNAQ / RFU, CDK5R1 / Fold change vs veh, CDK5R1 / RFU, ZRANB3 / Fold change vs veh, ZRANB3 / RFU, CUL4A / Fold change vs veh, CUL4A / RFU, CCNY / Fold change vs veh, CCNY / RFU, UFL1 / Fold change vs veh, UFL1 / RFU, COG3 / Fold change vs veh, COG3 / RFU, DIAPH2 / Fold change vs veh, DIAPH2 / RFU, SKA2 / Fold change vs veh, SKA2 / RFU, AFF3 / Fold change vs veh, AFF3 / RFU, LMF1 / Fold change vs veh, LMF1 / RFU, IPO11 / Fold change vs veh, IPO11 / RFU, DFFB / Fold change vs veh, DFFB / RFU, FOXP1 / Fold change vs veh, FOXP1 / RFU, CARD8 / Fold change vs veh, CARD8 / RFU, STRN3 / Fold change vs veh, STRN3 / RFU, ADK / Fold change vs veh, ADK / RFU, RASSF2 / Fold change vs veh, RASSF2 / RFU, WIPF1 / Fold change vs veh, WIPF1 / RFU, LARP1B / Fold change vs veh, LARP1B / RFU, RASA1 / Fold change vs veh, RASA1 / RFU, RB1 / Fold change vs veh, RB1 / RFU, PPFIA1 / Fold change vs veh, PPFIA1 / RFU, MAT2A / Fold change vs veh, MAT2A / RFU, CCT5 / Fold change vs veh, CCT5 / RFU, WDR92 / Fold change vs veh, WDR92 / RFU, CUX1 / Fold change vs veh, CUX1 / RFU, TTC7A / Fold change vs veh, TTC7A / RFU, TMEM135 / Fold change vs veh, TMEM135 / RFU, DEPTOR / Fold change vs veh, DEPTOR / RFU, CPM / Fold change vs veh, CPM / RFU, DNAJB6 / Fold change vs veh, DNAJB6 / RFU, CACNA2D3 / Fold change vs veh, CACNA2D3 / RFU, DTX4 / Fold change vs veh, DTX4 / RFU, TFCP2 / Fold change vs veh, TFCP2 / RFU, GMCL1 /// GMCL1P1 / Fold change vs veh, GMCL1 /// GMCL1P1 / RFU, AEBP2 / Fold change vs veh, AEBP2 / RFU, SNHG1 /// SNORD22 /// SNORD25 /// SNORD26 /// SNORD27 /// SNORD28 /// SNORD29 /// SNORD31 / Fold change vs veh, SNHG1 /// SNORD22 /// SNORD25 /// SNORD26 /// SNORD27 /// SNORD28 /// SNORD29 /// SNORD31 / Fold change (Aza/veh), C12orf56 (ProbeSet 11735607_a_at) / Fold change (ACY-1035/veh), C12orf56 (ProbeSet 11735607_a_at) / Fold change (Aza/veh), FGFR1OP (ProbeSet 11751329_s_at) / Fold change (ACY-1035/veh), FGFR1OP (ProbeSet 11751329_s_at) / Fold change (Aza/veh), VPS36 (ProbeSet 11739960_a_at) / Fold change (ACY-1035/veh), VPS36 (ProbeSet 11739960_a_at) / RFU SYPL1 (11715823_x_at) / Fold change /veh SYPL1 (11715823_x_at) / RFU IGFBP7 (11715501_s_at) / Fold change /veh IGFBP7 (11715501_s_at) / RFU REEP3 (11722064_at) / Fold change /veh REEP3 (11722064_at) / RFU IGLL1 (11728026_x_at) / Fold change /veh IGLL1 (11728026_x_at): dose or concentration left out as unconfirmed
# Details: MV-4-11 cells, 48 hours
smiles,measurement,value
Nc1ccc(-c2cccs2)cc1NC(=O)c1ccc2c(c1)cc(C1CC1)n2CCN1CCOCC1 [ACY-1035],Fold change /veh PRSS12 (11739890_at),1.14
